Measured values: patent publication US10336732B2, “1-heterocyclyl isochromanyl compounds and analogs for treating CNS disorders” (Sunovion Pharmaceuticals Inc., priority 2015, dated 2019)

These molecules were tested on mice (assay: Neuropharmacological assay (SmartCube), behavioral signature of compound-treated mice). Conditions: i.p. 15 min before behavioral test, most efficacious dose(s) of 3 doses.
Assay type: in vivo
Procedure, shortened: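 Mice received compound i.p. in NMP/PEG/propylene glycol vehicle at 3 doses, 15 min before testing. Video-captured behavior was algorithmically compared with a reference-drug signature database.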

Compound | AD: ADHD (probability that behavioral signature matches class) | AG: analgesic (probability that behavioral signature matches class) | AX: anxiolytic (probability that behavioral signature matches class) | CE: cognitive enhancer (probability that behavioral signature matches class) | DP: anti-depressant (probability that behavioral signature matches class) | HA: hallucinogen (probability that behavioral signature matches class) | MS: mood stabilizer (probability that behavioral signature matches class) | PS: anti-psychotic (probability that behavioral signature matches class) | SD: sedative hypnotic (probability that behavioral signature matches class) | UN: uncharacterized CNS activity (probability that behavioral signature matches class)
Clc1ccc2c(c1)CCO[C@H]2[C@H]1CCCN1 [Compound I-35, (R)-2-((R)-6-chloroisochroman-1-yl)pyrrolidine] | + (LOQ ≤ + <5%) | + (LOQ ≤ + <5%) | ++ (5% ≤ ++ <25%) | ++ (5% ≤ ++ <25%) | ++ (5% ≤ ++ <25%) | + (LOQ ≤ + <5%) | + (LOQ ≤ + <5%) | +++ (25% ≤ +++ <50%) | ++ (5% ≤ ++ <25%) | ++ (5% ≤ ++ <25%)
C[C@@]1([C@H]2CCCN2)OCc2cc(F)ccc21 [Compound I-124, (R)-2-((R)-5-fluoro-1-methyl-1,3-dihydroisobenzofuran-1-yl)pyrrolidine] | + (LOQ ≤ + <5%) | + (LOQ ≤ + <5%) | + (LOQ ≤ + <5%) | + (LOQ ≤ + <5%) | + (LOQ ≤ + <5%) | + (LOQ ≤ + <5%) | + (LOQ ≤ + <5%) | + (LOQ ≤ + <5%) | + (LOQ ≤ + <5%) | + (LOQ ≤ + <5%)
Fc1cccc2c1CCO[C@@H]2[C@@H]1CCCN1 [Compound I-14, (S)-2-((S)-5-fluoroisochroman-1-yl)pyrrolidine] | + (LOQ ≤ + <5%) | ++ (5% ≤ ++ <25%) | ++ (5% ≤ ++ <25%) | ++ (5% ≤ ++ <25%) | +++ (25% ≤ +++ <50%) | + (LOQ ≤ + <5%) | ++ (5% ≤ ++ <25%) | +++ (25% ≤ +++ <50%) | + (LOQ ≤ + <5%) | + (LOQ ≤ + <5%)
Fc1ccc2c(c1)[C@H](F)CO[C@H]2[C@@H]1CCN1 [Compound I-135, (2S)-2-((1R)-4,6-difluoroisochroman-1-yl)azetidine] | + (LOQ ≤ + <5%) | ++ (5% ≤ ++ <25%) | ++ (5% ≤ ++ <25%) | ++ (5% ≤ ++ <25%) | ++ (5% ≤ ++ <25%) | + (LOQ ≤ + <5%) | ++ (5% ≤ ++ <25%) | +++ (25% ≤ +++ <50%) | ++ (5% ≤ ++ <25%) | ++ (5% ≤ ++ <25%)

Same assay, conditions: i.p. 15 min before behavioral test, most efficacious dose(s) of 3 doses

Compound | XG: anxiogenic (probability that behavioral signature matches class)
Clc1ccc2c(c1)CCO[C@H]2[C@H]1CCCN1 [Compound I-35, (R)-2-((R)-6-chloroisochroman-1-yl)pyrrolidine] | + (LOQ ≤ + <5%)
C[C@@]1([C@H]2CCCN2)OCc2cc(F)ccc21 [Compound I-124, (R)-2-((R)-5-fluoro-1-methyl-1,3-dihydroisobenzofuran-1-yl)pyrrolidine] | + (LOQ ≤ + <5%)
Fc1cccc2c1CCO[C@@H]2[C@@H]1CCCN1 [Compound I-14, (S)-2-((S)-5-fluoroisochroman-1-yl)pyrrolidine] | + (LOQ ≤ + <5%)
Fc1ccc2c(c1)[C@H](F)CO[C@H]2[C@@H]1CCN1 [Compound I-135, (2S)-2-((1R)-4,6-difluoroisochroman-1-yl)azetidine] | + (LOQ ≤ + <5%)
